For data set [1], the target named is T1, S1R (Homo sapiens, UniProt Q99720).
T1 construct: For the S1R assay, Jurkat cell membranes (10–20 μg protein/tube) were incubated at 37 °C for 2 h; host or cells: Jurkat cell membranes
As to the kind of experiment: S1R competitive radioligand binding, [3H](+)-pentazocine, Jurkat cell membranes. The note with it: for IC50: [3H]-(+)-pentazocine displacement, n = 2; for Ki (S2R)/ Ki (S1R): selectivity ratio S2R/S1R. From the text:
S1R and S2R affinities were classically evaluated through competitive binding assays using radioligands, following the protocol described by Ganapathy et al.. The selective radioligand [^3H] (+)-pentazocine was employed as the classic prototypical ligand, selectively binding to the orthosteric S1R-binding sites. […] Jurkat cell membranes served as the receptor source in both assays. The equilibrium dissociation constants (Ki) for S1R and S2R were derived from the IC50 values of each compound, and selectivity ratios (S2R/S1R) were subsequently calculated (Table 1, Figures S2 and S3).
Binding assays were performed by Eurofins Cerep (Poitiers, France) according to the protocol of Ganapathy. […] For the S2R assay, Jurkat cell membranes (10–20 μg protein/tube) were incubated at room temperature for 1 h in the same buffer with [^3H]-DTG (25 nM) in the presence of (+)-pentazocine (1 μM) to saturate S1R, along with a range of test compound concentrations. Bound radioactivity was quantified by liquid scintillation counting. Nonspecific binding was determined under identical conditions in the presence of 10 μM unlabeled haloperidol. The IC50 values (concentration causing a half-maximal inhibition of control-specific binding) and Hill coefficients (nH) were determined by non-linear regression analysis of the competition curves generated with mean replicate values using Hill equation curve-fitting. This analysis was performed using software developed at Cerep (Hill software) and validated by comparison with data generated by the commercial software SigmaPlot ®4.0 for Windows® (©1997 by SPSS Inc.). Inhibition constants (Ki) were calculated from IC50 values using the method of Cheng and Prusoff.

Data set [2] can be described thus: Solubility, shake-flask method, HPLC-UV/VIS. It is filed as physicochemical. The note with it: thermodynamic from solid, n = 2. The protocol: Solubility and stability remained unchanged in simulated gastric fluid (SGF) and simulated intestinal fluid (SIF), which mimic gastrointestinal digestion. Intestinal permeability was assessed using a two-chamber system with apical (A, pH 6.5) and basolateral (B, pH 7.4) compartments, representing the luminal and blood/mesenteric lymph sides of the gastrointestinal tract, respectively. […] The efflux ratios for both compounds ranged between 1 and 2, indicating improved permeability relative to the reference compound 1.
Standardized in vitro ADME experiments were performed by Eurofins Cerep (Poitiers, France). Solubility assays were performed in PBS at pH 7.4, but also in simulated gastric fluid (SGF) and intestinal fluid (SIF), through the classical shake-flask method described by Lipinski et al., using HPLC-UV/VIS technology. The results were expressed in µM. The compound was classically evaluated at 10 µM for all of the ADME analyses. Bidirectional permeability (apical A to basolateral B pH 6.5/7.4, and basolateral B to apical A pH 7.4/6.5) was assessed in the epithelial colorectal adenocarcinoma cell line (Caco-2 cell line). The results were expressed as ×10^−6 cm/s (Papp) and as % recovery. The efflux ratio, i.e., Papp (B→A)/Papp(A→B), was calculated. Plasma protein binding was analyzed by HPLC-MS/MS after 4 h of incubation at 37 °C, as described by Banker et al.. Concentration was evaluated by LC/MS-MS. CYP inhibition was performed in human liver microsomes as described in [28]. Analysis of the respective metabolites was performed by HPLC-MS/MS. Transporter inhibition analysis was also performed in overexpressing cell lines. Respective metabolites for each specific transporter substrate were analyzed by fluorometry or scintillation counting, and % inhibition of control values were calculated. P-glycoprotein transporter substrate assessment was performed by bidirectional permeability analysis (apical A to basolateral B pH 7.4/7.4, and basolateral B to apical A pH 7.4/7.4) in the Caco-2 cell line with and without verapamil, as described in [26]. The results were expressed as ×10^−6 cm/s (Papp) and as % recovery. The efflux ratio was calculated as Papp(B→A)/Papp(A→B). CYP450 induction was assessed in human hepatocytes by measuring the mRNA levels of seven CYP isoforms via qPCR, as described in [40]. The compound was tested at 1, 10, and 100 μM, and fold-induction values were compared with predefined cut-off thresholds for each isoform and hepatocyte lot.

Data set [3] can be described thus: Microsomal stability. It is filed as in vitro ADME. The settings on record: human, liver microsomes. The protocol:
Microsomal stability was evaluated using human liver microsomes at 10 µM (Table 3). […] Since cytochrome P450 (CYP) enzymes—especially families 1 to 3—play major roles in drug metabolism, CYP inhibition was tested against the human isoforms CYP1A, 2B6, 2C8, 2C9, 2C19, 2D6, and 3A, as recommended by FDA and EMA guidelines. […] Membrane transport proteins, including the ATP-binding cassette (ABC) and solute carrier (SLC) families, affect drug pharmacokinetics and potential drug–drug interactions. The inhibitory effects of compounds 2 and 6 were assessed against five ABC transporters (P-gp, BCRP, MRP1, MRP2, and MRP3) and seven SLC transporters (OAT1, OAT3, OATP1B1, OCT1, OCT2, ASBT, and NTCP).
In general terms: Microsomes from liver hold many membrane-bound enzymes, among them those of drug oxidation.

The mark [4] stands for this setting: aqueous buffer, PBS pH 7.4, read-out: Solubility PBSpH7.4.
[5] abbreviates: simulated gastric fluid (SGF), simulated gastric fluid, read-out: Solubility SGF.
[6] abbreviates: simulated intestinal fluid (SIF), fassgf or other biorelevant, simulated intestinal fluid, read-out: Solubility SIF.
Where [7] appears, read: n = 2, read-out: Human liver microsome intrinsic clearance.

The structures appear in SMILES notation. In brackets after ≈: the same amount, converted by molar mass. Like-named read-outs stand apart in the source and are kept apart here. Where only a bound is given, the exact number is not on record here.

T1 sequence (Q99720 whole entry): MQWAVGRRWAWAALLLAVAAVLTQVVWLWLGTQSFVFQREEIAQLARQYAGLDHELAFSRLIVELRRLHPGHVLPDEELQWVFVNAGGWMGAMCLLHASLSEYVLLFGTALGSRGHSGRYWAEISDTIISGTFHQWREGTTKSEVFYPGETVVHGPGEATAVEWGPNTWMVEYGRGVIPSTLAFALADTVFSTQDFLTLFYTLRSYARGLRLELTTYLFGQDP

By Ki is commonly meant a measure of affinity in units of concentration, obtained from inhibition or displacement. A high value points to a looser hold on the target. The term IC50 denotes the concentration needed to halve the response being measured. Read a low IC50 as higher potency. The solubility is how much of the substance goes into solution per volume. Regarding `CN(CCC(=O)NCc1cccc(Cl)c1)Cc1ccccc1` [Compound 2, 3-(Benzylmethylamino)-N-(3-chlorobenzyl)propanamide], the affinity in data set [1] ([3H](+)-pentazocine, Jurkat cell membranes, mean of 2–3 independent experiments) corresponds to a Ki of 0.6 nM. In data set [1] (Jurkat cell membranes), the IC50 was found to be 1.2 nM. Besides, the “Ki (S2R)/ Ki (S1R)” value in data set [1] stood at 317. In addition, the solubility in data set [2] (setting [4]) is 167 µM (≈ 52.9 µg/mL); in data set [2] (setting [5]), 186 µM (≈ 58.9 µg/mL); in data set [2] (setting [6]) it was 181 µM (≈ 57.3 µg/mL). For the same compound, the microsomal CLint at 10 µM in data set [3] (setting [7]) was 135 µL/min/mg.
Compound `CN(CCC(=O)NCc1ccc(C#N)cc1)Cc1ccccc1` [Compound 6, 3-(Benzylmethylamino)-N-(4-cyanobenzyl)propanamide] displayed an IC50 in data set [1] (Jurkat cell membranes) of 11 nM. In data set [1], the “Ki (S2R)/ Ki (S1R)” value amounted to 331. Besides, the solubility is 190 µM (≈ 58.4 µg/mL) in data set [2] (setting [4]), 178 µM (≈ 54.7 µg/mL) in data set [2] (setting [5]) and 190 µM (≈ 58.4 µg/mL) in data set [2] (setting [6]). Besides, the half-life at 10 µM in data set [3] (as in running text, read-out: Human liver microsome half-life) was over 1 h; in data set [3] (n = 2, read-out: Human liver microsome half-life t1/2), over 1 h. For the same compound, the microsomal CLint at 10 µM is under 116 µL/min/mg in data set [3] (setting [7]) and under 115 µL/min/mg in data set [3] (read-out: Human liver microsome clearance).

The record behind these values is publication PMC12430443, “Discovery of Novel Benzamide-Based Sigma-1 Receptor Agonists with Enhanced Selectivity and Safety” (Molecules, 2025).
